Measurements taken from patent US9346761B2, “Arginine methyltransferase inhibitors and uses thereof” (Epizyme, Inc., priority 2013, dated 2016).

What was measured:
Full-length human PRMT8 = target: T1, Full-length human PRMT8 (Homo sapiens, UniProt Q9NR22); assay: PRMT8 biochemical assay (3H-SAM Flashplate, peptide substrate)
T1 construct: Full-length human PRMT8 (NM_019854.4) isoform 1 transcript clone; made in house
From the text: General Materials. S-adenosylmethionine (SAM), S-adenosylhomocysteine (SAH), bicine, Tween20, dimethylsulfoxide (DMSO), bovine skin gelatin (BSG), isopropyl-β-D-thiogalactopyranoside (IPTG), and Tris(2-carboxyethyl)phosphine hydrochloride solution (TCEP) were purchased from Sigma-Aldrich at the highest level of purity possible. ^3H-SAM was purchase from American Radiolabeled Chemicals with a specific activity of 80 Ci/mmol. 384-well streptavidin Flashplates were purchased from PerkinElmer.
Substrates. Peptide representative of human histone H4 residues 31-45 was synthesized with an N-terminal linker-affinity tag motif and a C-terminal amide cap by 21st Century Biochemicals.
Protein Expression. E. coli (BL21(DE3) Gold, Stratagene) made competent by the CaCl2 method were transformed with the PRMT8 construct and ampicillin selection. Protein over-expression was accomplished by growing the PRMT8 expressing E. coli clone and inducing expression with 0.3 mM IPTG at 16° C. The culture was grown for 12 hours, harvested by centrifugation, and stored at −80° C. for purification.
Protein Purification. […] GST-tagged PRMT8 was eluted with 50 mM Tris, 2 mM glutathione, pH 7.8. Pooled fractions were cleaved by thrombin (10 U) and dialysed in buffer A. GST was removed by reloading the cleaved protein sample onto glutathione sepharose column and PRMT8 was collected in the flow-through fractions. PRMT8 was purified further by ceramic hydroxyapatite chromatography. The column was washed with 50 mM phosphate buffer, 100 mM NaCl, 5% glycerol, 5 mM β-mercaptoethanol, pH 7.8 and PRMT8 was eluted by 100 mM phosphate in the same buffer. Protein was concentrated and buffer was exchanged to 50 mM Tris, 300 mM NaCl, 10% glycerol, 5 mM β-mercaptoethanol, pH 7.8 by ultrafiltration.
General Procedure for PRMT8 Enzyme Assays on Peptide Substrates. The assays were all performed in a buffer consisting of 20 mM Bicine (pH=7.6), 1 mM TCEP, 0.005% BSG, and 0.002% Tween 20, prepared on the day of use. […] DMSO (1 ul) was added to Columns 11, 12, 23, 24, rows A-H for the maximum signal control and 1 ul of SAH, a known product and inhibitor of PRMT8, was added to columns 11, 12, 23, 24, rows I-P for the minimum signal control. A cocktail (40 ul) containing the PRMT8 enzyme was added by Multidrop Combi (Thermo-Fisher). The compounds were allowed to incubate with PRMT8 for 30 min at room temperature, then a cocktail (10 ul) containing ^3H-SAM and peptide was added to initiate the reaction (final volume=51 ul). […] The assays were stopped by the addition of non-radiolabeled SAM (10 ul) to a final concentration of 400 uM, which dilutes the ^3H-SAM to a level where its incorporation into the peptide substrate is no longer detectable. 50 ul of the reaction in the 384-well polypropylene plate was then transferred to a 384-well Flashplate and the biotinylated peptides were allowed to bind to the streptavidin surface for at least 1 hour before being washed once with 0.1% Tween20 in a Biotek ELx405 plate washer. The plates were then read in a PerkinElmer TopCount plate reader to measure the quantity of ^3H-labeled peptide bound to the Flashplate surface, measured as disintegrations per minute (dpm) or alternatively, referred to as counts per minute (cpm).
Where dpm=disintegrations per minute, cmpd=signal in assay well, and min and max are the respective minimum and maximum signal controls.
Where top and bottom are the normally allowed to float, but may be fixed at 100 or 0 respectively in a 3-parameter fit. The Hill Coefficient normally allowed to float but may also be fixed at 1 in a 3-parameter fit. Y is the % inhibition and X is the compound concentration.

[1] = target: T2, Full-length human PRMT1 isoform 1 (Homo sapiens, UniProt Q99873); assay: PRMT1 biochemical assay (3H-SAM Flashplate, peptide substrate)
T2 construct: GST-tagged PRMT1; made in house; host or cells: High Five insect cells (baculovirus, pFastBacI)
In short: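 Tritiated methyl transfer from 3H-SAM onto biotinylated peptide, captured on streptavidin Flashplates and counted. Baculovirus-expressed GST-PRMT1 and compound were preincubated 30 min at room temperature in Bicine buffer pH 7.6. Cold SAM at 300 uM final ended the reaction.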

T2 sequence (Q99873 with tags, fused parts or gaps): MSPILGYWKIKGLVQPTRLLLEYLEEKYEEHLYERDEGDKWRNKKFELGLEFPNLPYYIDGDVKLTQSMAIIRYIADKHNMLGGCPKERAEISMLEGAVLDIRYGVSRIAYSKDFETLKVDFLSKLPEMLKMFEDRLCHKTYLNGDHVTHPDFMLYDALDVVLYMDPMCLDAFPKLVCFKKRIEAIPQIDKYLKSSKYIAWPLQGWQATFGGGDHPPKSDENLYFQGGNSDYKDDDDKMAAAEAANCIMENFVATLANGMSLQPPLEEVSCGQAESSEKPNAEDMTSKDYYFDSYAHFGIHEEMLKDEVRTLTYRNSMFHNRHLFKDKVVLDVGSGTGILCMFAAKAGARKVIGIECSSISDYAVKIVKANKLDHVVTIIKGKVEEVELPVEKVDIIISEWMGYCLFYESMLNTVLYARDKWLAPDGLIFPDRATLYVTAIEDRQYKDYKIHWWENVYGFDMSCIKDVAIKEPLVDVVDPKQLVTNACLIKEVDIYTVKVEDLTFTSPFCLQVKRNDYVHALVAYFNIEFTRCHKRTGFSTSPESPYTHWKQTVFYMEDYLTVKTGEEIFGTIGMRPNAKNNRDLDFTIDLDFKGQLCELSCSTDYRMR
T1 sequence (Q9NR22 whole entry, canonical isoform): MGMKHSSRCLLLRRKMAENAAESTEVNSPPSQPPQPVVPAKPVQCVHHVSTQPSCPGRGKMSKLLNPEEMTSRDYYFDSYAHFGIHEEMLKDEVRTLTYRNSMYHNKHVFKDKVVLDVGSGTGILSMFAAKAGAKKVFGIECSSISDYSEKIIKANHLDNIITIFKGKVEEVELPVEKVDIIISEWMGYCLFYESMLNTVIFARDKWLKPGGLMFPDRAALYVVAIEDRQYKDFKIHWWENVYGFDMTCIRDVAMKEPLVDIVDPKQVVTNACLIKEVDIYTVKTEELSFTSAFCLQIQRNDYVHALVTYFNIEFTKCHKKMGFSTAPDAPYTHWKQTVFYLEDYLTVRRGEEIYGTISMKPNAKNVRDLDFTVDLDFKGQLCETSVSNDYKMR

SMILES	IC50 (Full-length human PRMT8)	IC50 [1]
Cc1cc(F)ccc1-c1n[nH]cc1CN(C)CCN [Compound 152]	0.101 to 1 µM	< 0.1 µM
COc1ccc(-c2n[nH]cc2CN(C)CCN)cc1 [Compound 153]	0.101 to 1 µM	< 0.1 µM
COc1ccc(-c2n[nH]cc2CN(C)CCN)c(C(F)(F)F)c1 [Compound 154]	3.01 to 10 µM	0.101 to 1 µM
COc1ccc(-c2n[nH]cc2CN(C)CCN)c(C)c1 [Compound 155]	0.101 to 1 µM	< 0.1 µM
CN(CCN)Cc1c[nH]nc1-c1cc(Cl)ccc1F [Compound 156]	1.01 to 3 µM	0.101 to 1 µM
COc1ccc(Cl)cc1-c1n[nH]cc1CN(C)CCN [Compound 157]	3.01 to 10 µM	1.01 to 3 µM
Cc1ccc(C#N)cc1-c1n[nH]cc1CN(C)CCN [Compound 158]	> 10 µM	1.01 to 3 µM
Cc1ccc(F)cc1-c1n[nH]cc1CN(C)CCN [Compound 159]	0.101 to 1 µM	< 0.1 µM
COc1ccc(F)cc1-c1n[nH]cc1CN(C)CCN [Compound 160]	3.01 to 10 µM	0.101 to 1 µM
Cc1ccccc1-c1n[nH]cc1CN(C)CCN [Compound 161]	1.01 to 3 µM	0.101 to 1 µM
Cc1ccc(-c2n[nH]cc2CN(C)CCN)cc1 [Compound 162]	0.101 to 1 µM	< 0.1 µM
CCN(C)C(=O)c1ccc(-c2n[nH]cc2CN(C)CCN)cc1 [Compound 163]	1.01 to 3 µM	0.101 to 1 µM
CC(C)CN(C)C(=O)c1ccc(-c2n[nH]cc2CN(C)CCN)cc1 [Compound 164]	1.01 to 3 µM	0.101 to 1 µM
CCOc1ccc(-c2n[nH]cc2CN(C)CCN)cc1 [Compound 166]	0.101 to 1 µM	< 0.1 µM
COCCOc1ccc(-c2n[nH]cc2CN(C)CCN)cc1 [Compound 167]	0.101 to 1 µM	< 0.1 µM
Cc1[nH]nc(-c2ccc(F)cc2)c1CN(C)CCN [Compound 169]	1.01 to 3 µM	0.101 to 1 µM
CC(C)Cc1ccc(-c2c[nH]nc2CN(C)CCN)cc1 [Compound 170]	0.101 to 1 µM	< 0.1 µM
NCCN(CCO)Cc1c[nH]nc1-c1ccc(F)cc1 [Compound 171]	1.01 to 3 µM	0.101 to 1 µM
CN(CCN)Cc1c[nH]nc1-c1ccc(OCCN2CCOCC2)cc1 [Compound 172]	3.01 to 10 µM	0.101 to 1 µM
CN(CCN)Cc1c[nH]nc1-c1ccc2c(c1)NC(=O)CO2 [Compound 173]	3.01 to 10 µM	0.101 to 1 µM
